Test [1] deals with tandem BRCT domains of TOPBP1. As to the kind of experiment: fluorescence polarisation, tandem BRCT domains of TOPBP1. The settings on record: peptide 200 nM, 25 mM HEPES pH 7.5, 200 mM NaCl. Format: binding. The protocol: (§1) Recombinant BRCT2 domain proteins were expressed as N-terminally HIS-SUMO tagged constructs from a modified pET15b vector in Escherichia coli BL21(DE3) host strain (Novagen). Cell pellets were re-suspended in lysis buffer containing 50 mM HEPES pH 7.5, 200 mM NaCl, 0.5 mM TCEP and supplemented with 10 U DNASE Turbo (ThermoFisher), then disrupted by sonication and the resulting lysate clarified by centrifugation at 40,000 × g for 60 min at 4 °C. […]
(§2) For Fluorescence Polarisation experiments, a Superdex 75 16/60 size exclusion column (GE Healthcare) was used to purify the His6-SUMO-BRCT2 proteins to homogeneity in 25 mM HEPES pH 7.5, 200 mM NaCl, 1 mM EDTA, 0.25 mM TCEP, 0.02% (v/v) Tween-20.
(§3) Fluorescein-labelled peptides (Flu-RIF1pS2265 Flu-[…](pS)PKFKSSK, Flu-BRIP1pS990 Flu-[…](pS)PTFNKQT and Flu-H2AXpS140 Flu-[…](pS)QEY, where (pS) is phosphorylated Serine) (Peptide Protein Research Ltd, Bishops Waltham, UK) at a concentration of 200 nM, were incubated at room temperature with increasing concentrations of His6-SUMO-BRCT2 protein in 25 mM HEPES pH 7.5, 200 mM NaCl, 1 mM EDTA, 0.25 mM TCEP, 0.02% (v/v) Tween-20 in a black 96-well polypropylene plate (VWR, Lutterworth, UK). […] Fluorescence polarisation was measured in a CLARIOstar multimode microplate reader (BMG Labtech GmbH, Offenburg, Germany). […]
Background: In fluorescence polarisation assays a small probe gives low polarisation when free and higher when bound to something large.

In test [2] the test system is BRCA1-BRCT domain (His6-SUMO-BRCT2). As to the kind of experiment: fluorescence polarisation, tandem BRCT domains of BRCA1. Type of test: binding, human. The protocol: Recombinant BRCT2 domain proteins were expressed as N-terminally HIS-SUMO tagged constructs from a modified pET15b vector in Escherichia coli BL21(DE3) host strain (Novagen). Cell pellets were re-suspended in lysis buffer containing 50 mM HEPES pH 7.5, 200 mM NaCl, 0.5 mM TCEP and supplemented with 10 U DNASE Turbo (ThermoFisher), then disrupted by sonication and the resulting lysate clarified by centrifugation at 40,000 × g for 60 min at 4 °C. The supernatant was applied to a 5 ml HiTrap TALON crude column (GE Healthcare, Little Chalfont, UK), washed first with buffer containing 50 mM HEPES pH 7.5, 1000 mM NaCl, 0.5 mM TCEP, followed by lysis buffer supplemented with 10 mM imidazole, with any retained protein then eluted by application of the same buffer supplemented with 250 mM imidazole. The eluted protein was concentrated before further purification by size exclusion chromatography.
as §2
Fluorescein-labelled peptides (Flu-RIF1pS2265 Flu-[…](pS)PKFKSSK, Flu-BRIP1pS990 Flu-[…](pS)PTFNKQT and Flu-H2AXpS140 Flu-[…](pS)QEY, where (pS) is phosphorylated Serine) (Peptide Protein Research Ltd, Bishops Waltham, UK) at a concentration of 200 nM, were incubated at room temperature with increasing concentrations of His6-SUMO-BRCT2 protein in 25 mM HEPES pH 7.5, 200 mM NaCl, 1 mM EDTA, 0.25 mM TCEP, 0.02% (v/v) Tween-20 in a black 96-well polypropylene plate (VWR, Lutterworth, UK). Incubation with Lambda phosphatase (NEB, Hitchin, UK) supplemented with 1 mM MnCl2 was used to remove the phosphorylation on the peptides. Fluorescence polarisation was measured in a CLARIOstar multimode microplate reader (BMG Labtech GmbH, Offenburg, Germany). Binding curves represent the mean of 4 independent experiments, with error bars of 1 standard deviation. […]

The subject of test [3] is tandem BRCT domains of MDC1. The test is described as follows: fluorescence polarisation, tandem BRCT domains of MDC1. Format: binding. The following applies: peptide 200 nM, 25 mM HEPES pH 7.5, 200 mM NaCl. The protocol:
as §1, §2, §3

Test [4] deals with tandem BRCT domains of 53BP1. As to the kind of experiment: fluorescence polarisation, tandem BRCT domains of 53BP1. Format: binding. The following applies: peptide 200 nM, 25 mM HEPES pH 7.5, 200 mM NaCl. The protocol:
as §1, §2, §3

For the substance “Flu-GYGFLSPGSR(pS)PKFKSSK [RIF1-L phosphoS^2265PKF peptide, fluorescein-labelled RIF1-L-derived phosphopeptide]”, the “binding to tandem BRCT domains of TOPBP1” value in test [1] is recorded as “did not bind”. The “binding to BRCA1-BRCT” value in test [2] (fluorescein-labelled peptide 200 nM, 25 mM HEPES pH 7.5, 200 mM NaCl, room temperature, mean of 4 independent experiments) is given as “bound strongly”. Further, in test [2] (peptide 200 nM, 25 mM HEPES pH 7.5, 200 mM NaCl), the “interaction affinity relative to BRIP1 phospho-peptide” value is reported as “comparable to that for a phospho-peptide from BRIP1”. The “binding to BRCA1-BRCT after λ phosphatase” value in test [2] (peptide treated with Lambda phosphatase, 1 mM MnCl2) is given as “abolished binding”. Besides, the “binding to tandem BRCT domains of MDC1” value in test [3] is “did not bind”. For the same substance, the “binding to tandem BRCT domains of 53BP1” value in test [4] was “did not bind”.

The record behind these values is article PMC12214830, “The human RIF1-Long isoform interacts with BRCA1 to promote recombinational fork repair under DNA replication stress” (Nature Communications, 2025).
